Data on 5 compounds can be found in ChEMBL document CHEMBL5523709, “Synthesis and Evaluation of diaryl ether modulators of the leukotriene A4 hydrolase aminopeptidase activity” (Eur J Med Chem, 2024).

Data set [1] has as its target T1, Leukotriene A-4 hydrolase (Homo sapiens, UniProt P09960).
T1 sequence (P09960 whole entry): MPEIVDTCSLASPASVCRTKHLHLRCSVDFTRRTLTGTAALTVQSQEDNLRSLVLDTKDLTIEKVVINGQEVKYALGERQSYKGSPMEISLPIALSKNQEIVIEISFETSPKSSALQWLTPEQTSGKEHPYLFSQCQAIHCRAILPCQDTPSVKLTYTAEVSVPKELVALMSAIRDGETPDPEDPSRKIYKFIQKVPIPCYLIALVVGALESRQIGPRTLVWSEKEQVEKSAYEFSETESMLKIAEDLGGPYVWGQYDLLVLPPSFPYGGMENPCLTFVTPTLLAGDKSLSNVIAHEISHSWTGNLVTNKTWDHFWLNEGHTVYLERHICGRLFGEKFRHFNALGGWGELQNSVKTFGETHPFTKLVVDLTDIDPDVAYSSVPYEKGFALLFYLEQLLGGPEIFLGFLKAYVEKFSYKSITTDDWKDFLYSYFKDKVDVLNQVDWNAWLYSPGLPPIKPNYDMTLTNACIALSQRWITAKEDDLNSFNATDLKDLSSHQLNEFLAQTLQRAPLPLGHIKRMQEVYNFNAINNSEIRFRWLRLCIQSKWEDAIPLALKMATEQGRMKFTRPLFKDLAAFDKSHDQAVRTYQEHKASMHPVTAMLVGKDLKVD
Put plainly: Activation of human recombinant LTA4H aminopeptidase activity assessed as alanine-p-nitroanilide (Ala-pNA) hydrolysis by LCMS analysis.

Data set [2] concerns the target T1, Leukotriene A-4 hydrolase. Put plainly: Inhibition of human recombinant LTA4H aminopeptidase activity assessed as alanine-p-nitroanilide (Ala-pNA) hydrolysis by LCMS analysis.
Data set [3] is described as follows: Metabolic stability in mouse liver microsomes assessed as depletion measured after 30 mins. Type of data set: ADME, Microsome. The settings on record: read-out: Drug degradation.
The species named for data set [4] is Mus musculus. Put plainly: Reduction in LTB4 level in 1000 CFU of Klebsiella pneumonia ATCC 43816 intranasal infected C57BL/6 mouse pneumonia model assessed as LTB4 level in bronchoalveolar lavage fluid (BALF) ELISA based by Epoxide hydrolase assay. Type of data set: functional. Background: In an ELISA, binding on a coated surface is turned into a signal by an enzyme label.

The species entered for data set [5] is Mus musculus. Put plainly: Anti-inflammatory activity against 1000 CFU of Klebsiella pneumonia ATCC 43816 intranasal infected C57BL/6 mouse pneumonia model assessed as mouse survival treated a day after bacterial exposure measured upto 14 days. Type of data set: functional, organism-based. The settings on record: time <= 14.0 day.
For data set [6], the target named is T2, Leukotriene A-4 hydrolase (Homo sapiens) (UniProt P09960).
T2 sequence (whole entry): T1 sequence (P09960 whole entry)
Description: Activation of human recombinant LTA4H aminopeptidase activity assessed as alanine-p-nitroanilide (Ala-pNA) hydrolysis at 10 uM measured within 2 mins time window by LCMS analysis.

Structures are written as SMILES. pEC50, pIC50: −log10 of the molar value. Activity calls are given as the source filed them. The rule behind the calls is not given here.

As for `Nc1nc(-c2ccc(Cc3ccccc3)cc2)cs1`, in data set [1], the negative-log EC50 (pEC50) – broadly, the EC50 on a negative log10 scale, so that one unit is a factor of ten – was 6.62.

Turning to `Clc1ccc(Oc2ccc(N3CCNCC3)cc2)cc1`, the pIC50 (usually the negative decadic logarithm of the IC50, by convention in mol/L) in data set [2] is 5.48.

With `Nc1cc(-c2ccc(Oc3ccc(Cl)cc3)cc2)n[nH]1`, in data set [1], the pEC50 was 6.92.

On to `Nc1cc[nH]n1`, for which the metabolised at 0.5 h in data set [3] was determined as 18%. Further, the result in the data set listed under Mus musculus [4] was Active. Besides, the outcome (in the data set filed under Mus musculus [5]; in data set [6]) was inactive.

For the compound `C[C@]12CC[C@H]3[C@@H](CCC4=CC(=O)CC[C@@]43C)[C@@H]1CC[C@@H]2O` [TESTOSTERONE], the metabolised at 0.5 h in data set [3] is 98%.
